From patent US10487071B2, “Bis-triazole compounds with anti-biofilm and anti-corrosion properties” (Université de Toulon, priority 2015, dated 2019)
Read-outs that look alike come from different tables or passages of the source.

What was measured:
[1] = test system: Pseudoalteromonas ulvae (TC14); experiment: Anti-adhesion test, strain TC14; type: cell-based; details: Pseudoalteromonas ulvae; for activity at 200 µM: 15 h; for EC50: read-out: EC50 (effective concentration to inhibit 50% of the adhesion)
Method: (§1) Bacterial strains were grown on Väätänen nine-salts solution (VNSS). When the stationary phase was reached, the bacterial suspension was centrifuged. Cells were then diluted in sterile artificial sea water (ASW) and introduced in microtiter plates (sterile black PS; Nunc, Fisher Scientific, France) with the tested compound (at eight concentrations in three replicates) in the presence of three controls: (i) non-specific staining control, (ii) adhesion control, and (iii) positive control. The maximum percentage of solvent (DMSO 2%) used to dilute the tested compound was also tested in triplicate as additional control. After incubation during an optimized adhesion time (moderately 15 h), non-adhered bacteria were eliminated and adhered cells were quantified after SYTO 61 (1 μM) staining. A percentage of inhibition was calculated per well. A sigmoid dose-response curve was obtained by plotting the percentage of inhibition as a function of the log of tested compound concentration, after mean (n=3) and standard deviation (SD) calculation per triplicate for each concentration. EC50 values were then calculated for each compound.
Pseudoalteromonas ulvae (TC14) was isolated in June 2010 in the Military Harbor of Toulon (Mediterranean Sea, France) as described in F. Brian-Jaisson, A. Ortalo-Magné, L. Guentas-Dombrowsky, F. Armougom, Y. Blache, M. Molmeret, Microb. Ecol., 2014, 68, 94-110.

[2] = test system: Pseudoalteromonas lipolytica (TC8); experiment: Anti-adhesion test, strain TC8; type: cell-based; details: for activity at 200 µM: 15 h, read-out: % of adhesion at 200 μM, TC8; for EC50: read-out: EC50 (effective concentration to inhibit 50% of the adhesion), TC8
Method: (§2) The anti-adhesion bioassays and toxicity tests are adapted from those disclosed in M. Camps, J.-F. Briand, L. Guentas-Dombrowsky, G. Culioli, A. Bazire and Y. Blache, Mar. Poll.
as §1

[3] = Gravimetry (weight loss), corrosion inhibition; details: mild steel in 1N HCl
Method: The corrosion rates were determined by electrochemical impedance spectroscopy measurements and gravimetry.
Weight loss measurements were performed on 2.5×2.0×0.1 cm rectangular mild steel coupons. The mild steel coupons were immersed into non-de-aerated HCl 1N solution in absence and presence of different concentrations of compounds of general formula (I). After the elapsed time, the coupons were taken out, washed, dried and weighed accurately. Experiments were duplicated.
Weight loss experiments were done to confirm the corrosion inhibitive properties of AS164.
The inhibition efficiency, IE (%), was estimated from the weight loss experiments using the following equation:
[formula] wherein CR^o and CR are respectively the corrosion rate in the absence and presence of AS164.

Paracoccus sp. (4M6) = experiment: Anti-adhesion test, strain 4M6; type: cell-based; details: for activity at 200 µM: 15 h, read-out: % of adhesion at 200 μM, 4M6; for EC50: read-out: EC50 (effective concentration to inhibit 50% of the adhesion), 4M6
Method: as §2, §1

| Molecule | activity at 200 µM [1] | activity at 200 µM ([2]; Pseudoalteromonas lipolytica) | IE % ([3]; 0.1 ppm) | IE % ([3]; 0.3 ppm) | IE % ([3]; 0.5 ppm) | IE % ([3]; 2 ppm) | IE % ([3]; 10 ppm) | activity at 200 µM (Paracoccus sp. (4M6); Paracoccus) | EC50 [1] | EC50 ([2]; Pseudoalteromonas lipolytica) | EC50 (Paracoccus sp. (4M6); Paracoccus) | EC50 ([2]; strain TC8) | EC50 (Paracoccus sp. (4M6); strain 4M6) |
| --- | --- | --- | --- | --- | --- | --- | --- | --- | --- | --- | --- | --- | --- |
| CN(C)CCOc1ccc(CCn2cc(CCCc3cn(CCc4ccc(OCCN(C)C)c(Br)c4)nn3)nn2)cc1Br [AS158] | 55.8 ± 3.8% | 57 ± 2.2% | 53.41% | 87.00% | 91.72% | 95.98% | 97.17% | 51.5 ± 3% | – | – | – | – | – |
| CN(C)CCOc1ccc(CCn2cc(CCCCc3cn(CCc4ccc(OCCN(C)C)c(Br)c4)nn3)nn2)cc1Br [AS159, 2-(4-(2-(4-(4-(1-(4-(2-(dimethylamino)ethoxy)-3-bromophenethyl)-1H-1,2,3-triazol-4-yl)butyl)-1H-1,2,3-triazol-1-yl)ethyl)-2-bromophenoxy)-N,N-dimethylethanamine] | 61.5 ± 1% | 58.4 ± 4.3% | 39.96% | 89.62% | 91.95% | 95.63% | 97.30% | 57.4 ± 1.6% | – | – | – | – | – |
| CN(C)CCOc1ccc(CCn2cc(CCCCCCc3cn(CCc4ccc(OCCN(C)C)c(Br)c4)nn3)nn2)cc1Br [AS160, 2-(4-(2-(4-(6-(1-(4-(2-(dimethylamino)ethoxy)-3-bromophenethyl)-1H-1,2,3-triazol-4-yl)hexyl)-1H-1,2,3-triazol-1-yl)ethyl)-2-bromophenoxy)-N,N-dimethylethanamine] | 67.4 ± 4% | 54.3 ± 10.8% | 71.40% | 92.14% | 92.66% | 96.06% | 97.03% | 59.5 ± 2.2% | – | – | – | – | – |
| CN(C)CCOc1ccc(CCn2cc(-c3cccc(-c4cn(CCc5ccc(OCCN(C)C)c(Br)c5)nn4)c3)nn2)cc1Br [AS161, 2-(4-(2-(4-(3-(1-(4-(2-(dimethylamino)ethoxy)-3-bromophenethyl)-1H-1,2,3-triazol-4-yl)phenyl)-1H-1,2,3-triazol-1-yl)ethyl)-2-bromophenoxy)-N,N-dimethylethanamine] | – | – | 86.75% | 86.21% | 94.07% | 97.10% | 98.33% | – | – | – | – | – | – |
| CN(C)CCCOc1ccc(CCn2cc(CCCc3cn(CCc4ccc(OCCCN(C)C)c(Br)c4)nn3)nn2)cc1Br [AS168, 3-(4-(2-(4-(3-(1-(4-(3-(dimethylamino)propoxy)-3-bromophenethyl)-1H-1,2,3-triazol-4-yl)propyl)-1H-1,2,3-triazol-1-yl)ethyl)-2-bromophenoxy)-N,N-dimethylpropan-1-amine] | 53.8 ± 5.9% | 59.9 ± 6.4% | – | – | – | – | – | 77.1 ± 2.4% | – | – | – | – | – |
| CN(C)CCCOc1ccc(CCn2cc(-c3cccc(-c4cn(CCc5ccc(OCCCN(C)C)c(Br)c5)nn4)c3)nn2)cc1Br [AS171, 3-(4-(2-(4-(3-(1-(4-(3-(dimethylamino)propoxy)-3-bromophenethyl)-1H-1,2,3-triazol-4-yl)phenyl)-1H-1,2,3-triazol-1-yl)ethyl)-2-bromophenoxy)-N,N-dimethylpropan-1-amine] | – | – | 53.82% | 86.91% | 91.72% | 97.25% | 98.51% | – | – | – | – | – | – |
| CN(C)CCCOc1ccc(CCn2cc(COCc3cn(CCc4ccc(OCCCN(C)C)c(Br)c4)nn3)nn2)cc1Br [AS173, 3-(4-(2-(4-(((1-(4-(3-(dimethylamino)propoxy)-3-bromophenethyl)-1H-1,2,3-triazol-4-yl)methoxy)methyl)-1H-1,2,3-triazol-1-yl)ethyl)-2-bromophenoxy)-N,N-dimethylpropan-1-amine] | 41.7 ± 1.6% | 51.6 ± 1% | 46.78% | 86.70% | 92.47% | 95.77% | 97.95% | 53.7 ± 4% | 122 ± 59.1 µM | – | – | – | – |
| CN(C)CCCOc1ccc(CCn2cc(CNCc3cn(CCc4ccc(OCCCN(C)C)c(Br)c4)nn3)nn2)cc1Br [AS174] | 45 ± 0.8% | 55.4 ± 0.4% | 53.41% | 87.00% | 91.72% | 95.98% | 97.17% | 56.3 ± 2.4% | – | 185 ± 16.2 µM | – | – | – |
| COc1ccc(CCn2cc(CCCCc3cn(CCc4ccc(OC)c(Br)c4)nn3)nn2)cc1Br [NT3, 1-(3-bromo-4-methoxyphenethyl)-4-(4-(1-(3-bromo-4-methoxyphenethyl)-1H-1,2,3-triazol-4-yl)butyl)-1H-1,2,3-triazole] | 53.3 ± 6.3% | 56.9 ± 1.7% | – | – | – | – | – | 50.9 ± 0.3% | – | – | – | – | – |
| COc1ccc(CCn2cc(COCc3cn(CCc4ccc(OC)c(Br)c4)nn3)nn2)cc1Br [NT6, 4-(((1-(3-bromo-4-methoxyphenethyl)-1H-1,2,3-triazol-4-yl)methoxy)methyl)-1-(3-bromo-4-methoxyphenethyl)-1H-1,2,3-triazole] | 38.4 ± 7.4% | 42.7 ± 6.5% | – | – | – | – | – | 44.9 ± 3.1% | 160 ± 33.5 µM | 181 ± 21.3 µM | 164 ± 6.3 µM | – | – |
| COc1ccc(CCn2cc(CNCc3cn(CCc4ccc(OC)c(Br)c4)nn3)nn2)cc1Br [NT7, bis((1-(3-bromo-4-methoxyphenethyl)-1H-1,2,3-triazol-4-yl)methyl)amine] | 37.4 ± 0.1% | 48.2 ± 2.1% | – | – | – | – | – | 46.3 ± 2.7% | 138 ± 8.7 µM | 188 ± 3 µM | 194 ± 8 µM | – | – |
| COc1ccc(CCn2cc(CCCc3cn(CCc4ccc(OC)c(Br)c4)nn3)nn2)cc1Br [NT10, 1-(3-bromo-4-methoxyphenethyl)-4-(3-(1-(3-bromo-4-methoxyphenethyl)-1H-1,2,3-triazol-4-yl)propyl)-1H-1,2,3-triazole] | 50.4 ± 2.2% | 50 ± 4.9% | – | – | – | – | – | 49.2 ± 0.8% | – | – | 182 ± 15.2 µM | – | – |
| Oc1ccc(CCn2cc(CCCc3cn(CCc4ccc(O)c(Br)c4)nn3)nn2)cc1Br [NT21, 4-(2-(4-(3-(1-(3-bromo-4-hydroxyphenethyl)-1H-1,2,3-triazol-4-yl)propyl)-1H-1,2,3-triazol-1-yl)ethyl)-2-bromophenol] | 53 ± 4% | 63% | – | – | – | – | – | 83.4 ± 3.9% | – | – | – | – | – |
| Oc1ccc(CCn2cc(CCCCc3cn(CCc4ccc(O)c(Br)c4)nn3)nn2)cc1Br [NT22, 4-(2-(4-(4-(1-(3-bromo-4-hydroxyphenethyl)-1H-1,2,3-triazol-4-yl)butyl)-1H-1,2,3-triazol-1-yl)ethyl)-2-bromophenol] | 54.4 ± 1.7% | 85.6 ± 2.1% | – | – | – | – | – | 52.4 ± 2.3% | – | – | – | – | – |
| Oc1ccc(CCn2cc(-c3cccc(-c4cn(CCc5ccc(O)c(Br)c5)nn4)c3)nn2)cc1Br [NT24] | 56.7 ± 1.3% | 66.5 ± 11.6% | – | – | – | – | – | 61.5 ± 4.2% | – | – | – | – | – |
| Oc1ccc(CCn2cc(COCc3cn(CCc4ccc(O)c(Br)c4)nn3)nn2)cc1Br [NT26] | 40.2 ± 3.3% | 50.3 ± 5.79% | – | – | – | – | – | 47.8 ± 0.1% | 127 ± 27.5 µM | 195 ± 10.7 µM | 198 ± 4.1 µM | – | – |
| CN(C)CCOc1ccc(CCn2cc(-c3ccc(-c4cn(CCc5ccc(OCCN(C)C)cc5)nn4)cc3)nn2)cc1 [SA11, 2-(4-(2-(4-(4-(1-(4-(2-(dimethylamino)ethoxy)phenethyl)-1H-1,2,3-triazol-4-yl)phenyl)-1H-1,2,3-triazol-1-yl)ethyl)phenoxy)-N,N-dimethylethanamine] | – | – | 90.50% | 93.32% | 95.49% | 96.95% | 97.11% | – | – | – | – | – | – |
| CN(C)CCOc1ccc(CCCn2cc(-c3ccc(-c4cn(CCCc5ccc(OCCN(C)C)c(Br)c5)nn4)cc3)nn2)cc1Br [SA31, 2-(4-(3-(4-(4-(1-(3-(4-(2-(dimethylamino)ethoxy)-3-bromophenyl)propyl)-1H-1,2,3-triazol-4-yl)phenyl)-1H-1,2,3-triazol-1-yl)propyl)-2-bromophenoxy)-N,N-dimethylethanamine] | – | – | 80.79% | 93.00% | 95.44% | 96.17% | 96.56% | – | – | – | – | – | – |
| tributyltin oxide [TBTO, reference compound] | – | – | – | – | – | – | – | – | – | – | – | 7 ± 3 µM | 4 ± 3 µM |
